Literature values in patent US7160580B2, “Organic acids incorporated edible antimicrobial films” (The Board of Trustees for the University of Arkansas, priority 2002, dated 2007).
“And” between values parts separate entries of the source, which are not always exact repeats. Equal values may be shown once.

How the values were obtained:
Listeria monocytogens [1] = settings: 2% acid rinsed catfish fillets stored at 4° C., up to 5 days
Listeria monocytogens [2] = settings: lean beef tissue treated with 1.7% lactic acid, stored at 5° C. for 7 days
E. coli 0157:H7 = settings: lean beef tissue treated with 1.7% lactic acid, stored at 5° C. for 7 days
Salmonella montevideo = settings: citric acid 0.2 and 0.4% in cellulose based edible film; surface or core tissue of tomatoes; assignment of the two values not stated

| SMILES | log reduction in Listeria monocytogens counts (Listeria monocytogens [1]) | log reduction Listeria monocytogens (Listeria monocytogens [2]) [log] | log reduction E. coli 0157:H7 (E. coli 0157:H7) [log] | log reductions of Salmonella montevideo (Salmonella montevideo) |
| --- | --- | --- | --- | --- |
| Cl [hydrochloric acid] | less than one log reduction | – | – | – |
| CC(O)C(=O)O (centres unmarked) [lactic acid] | less than one log reduction | 2.03 | 0.91 | – |
| O=C(O)CC(O)(CC(=O)O)C(=O)O [citric acid] | less than one log reduction | – | – | 2.18 log and 1.92 log |
| O=C(O)C(O)C(O)C(=O)O (centres unmarked) [tartaric acid] | less than one log reduction | – | – | – |
| O=C(O)CC(O)C(=O)O (centres unmarked) [malic acid] | less than one log reduction | – | – | – |
